Our source for the IC50 values is publication PMC9144581, “In Vitro Anti-Proliferative, and Kinase Inhibitory Activity of Phenanthroindolizidine Alkaloids Isolated from Tylophora indica” (Plants, 2022).

One experiment relates to HepG2. Put plainly: MTT anti-proliferative assay, HepG2. As to conditions: read-out: IC50 ± SD, HepG2. Type of experiment: cell-based, Human. As to the method:
(§1) The cells proliferations were determined by MTT [3-(4,5-dimethylthiazol-2-yl)-2,5-diphenyltetrazolium bromide] assays, wherein MTT color intensity was directly associated with the number of healthy, living cells. The three cancer cell lines, i.e., MCF-7, Michigan Cancer Foundation-7; HepG2, Human hepatocellular carcinoma; and HCT-116, Human colorectal carcinoma, were obtained from the Laboratory of Parasitology, Faculty of Medicine, Universitas Gadjah Mada Indonesia. The cells were cultured in DMEM (Dulbecco’s Modified Eagle’s Medium) (Gibco, Waltham, MA, USA) with 10% Fetal Bovine Serum (FBS, Gibco), 2% Sodium bicarbonate (NaHCO3, Gibco), and HEPES (4-2(2-hydroxyethyl)-1-piperazine ethane sulfonic acid) (Invitrogen). The cell lines were maintained at 37 °C in a humidified incubator containing 5% CO2. The IC50 values as µM were determined after 48-h of compounds incubations with the cells. The assays were determined as mean ± SD: Standard Deviation (n = 3) (p < 0.005, compared with the standard value).
For orientation: Formazan colour is commonly taken as a measure of viable cells.

The next experiment has as its target T1, Aurora-B (Homo sapiens, UniProt Q96GD4).
T1 construct: purchased Sigma-Aldrich
Description: Radiometric protein kinase assay, Aurora-B. Type of experiment: biochemical. As to the method: (§2) The radiometric protein kinase assays (RPKA) were used to investigate the kinase inhibitory effects of the isolated compounds. The method was dependent on the incorporation of radioactive ^33P isotope with ATP, and the percentage of phosphorylation was determined using the microplate-scintillation counter (Microbeta, Wallac, Finland) method. The half-maximal inhibitory concentration (IC50) values of compounds were measured by a microplate-scintillation counter. The control mixture (without peptide substrate) measures endogenous phosphorylation of proteins in the Protein Kinase Sample by-^33P-ATP. The purified protein kinases were used as positive controls for the assay (Sigma-Aldrich, St. Louis, MO, USA).

A further experiment deals with HCT-116. Put plainly: MTT anti-proliferative assay, HCT-116. Type of experiment: cell-based, Human. As to conditions: read-out: IC50 ± SD, HCT-116. As to the method:
as §1

The next experiment deals with MCF-7. Put plainly: MTT anti-proliferative assay, MCF-7. Type of experiment: cell-based. As to conditions: read-out: IC50 ± SD, MCF-7. As to the method: as §1
The target in another experiment is T2, Aurora-A (Homo sapiens, UniProt O14965).
T2 construct: purchased Sigma-Aldrich
T2 sequence (O14965 1-403): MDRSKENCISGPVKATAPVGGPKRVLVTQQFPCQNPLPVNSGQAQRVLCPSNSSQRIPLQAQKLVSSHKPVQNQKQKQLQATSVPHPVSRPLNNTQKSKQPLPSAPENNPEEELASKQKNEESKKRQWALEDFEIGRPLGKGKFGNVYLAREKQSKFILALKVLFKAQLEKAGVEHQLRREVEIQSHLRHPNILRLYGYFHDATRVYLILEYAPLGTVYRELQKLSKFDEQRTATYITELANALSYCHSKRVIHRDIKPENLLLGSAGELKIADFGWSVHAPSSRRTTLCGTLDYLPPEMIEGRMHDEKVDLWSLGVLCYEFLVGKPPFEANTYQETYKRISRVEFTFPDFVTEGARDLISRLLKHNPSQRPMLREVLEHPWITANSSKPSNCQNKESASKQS
Put plainly: Radiometric protein kinase assay, Aurora-A. Type of experiment: biochemical. As to the method:
as §2

[1] abbreviates: Homo sapiens, HepG2, MTT assay, 48-h incubation, n = 3.
Setting [2] is: radiometric kinase assay, 33P-ATP, average of three independent experiments, read-out: IC50 Values, Aurora-B.
The mark [3] stands for this setting: Homo sapiens, HCT-116, MTT assay, 48-h incubation, n = 3.
Setting [4] is: Homo sapiens, MCF7, MTT assay, 48-h incubation, n = 3.
Where [5] appears, read: radiometric kinase assay, 33P-ATP, average of three independent experiments, read-out: IC50 Values, Aurora-A.
Where [6] appears, read: MTT assay, 48-h incubation, n = 3.

The structures appear in SMILES notation. Read-outs that look alike come from different tables or passages of the source. Bounds are passed on as bounds.

T1 sequence (Q96GD4 whole entry): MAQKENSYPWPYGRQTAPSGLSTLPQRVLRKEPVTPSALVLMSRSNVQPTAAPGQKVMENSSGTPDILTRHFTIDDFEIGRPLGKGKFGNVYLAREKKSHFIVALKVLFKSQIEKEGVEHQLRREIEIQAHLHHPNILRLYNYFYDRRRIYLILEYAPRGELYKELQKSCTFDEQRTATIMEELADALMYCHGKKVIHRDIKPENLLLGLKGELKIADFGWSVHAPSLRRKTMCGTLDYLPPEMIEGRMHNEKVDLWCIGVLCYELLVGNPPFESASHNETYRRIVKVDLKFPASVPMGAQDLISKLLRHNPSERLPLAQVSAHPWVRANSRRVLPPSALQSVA

With `COc1ccc2c3c(c4cc(OC)c(O)cc4c2c1)C[N+]1([O-])CCCC1C3O` (stereo not drawn) [Compound 6, 14α-hydroxy-6-demethyltylophorinine N-Oxide], the IC50 is 15.3 ± 2.04 µM in the experiment with HepG2 (setting [1]); 6.5 ± 0.76 µM at Aurora-B (setting [2]); 65.6 ± 2.24 µM with HCT-116 (setting [3]); 12.2 ± 1.81 µM in the experiment on MCF-7 (setting [4]); 2.6 ± 0.86 µM on Aurora-A (setting [5]).
In the same order, the values of `COc1ccc2c3c(c4cc(OC)c(OC)cc4c2c1)C[N+]1([O-])CCC[C@H]1[C@H]3O` (stereo partly drawn) [Compound 4, 3,6,7-trimethoxy-14α-hydroxy-phenanthroindolizidine-N-Oxide] are 197 µM, over 100 µM, over 200 µM, over 200 µM and over 100 µM.
As for `COc1ccc2c3c(c4cc(OC)c(O)cc4c2c1)CN1CCC[C@H]1[C@H]3O` [Compound 5, 14α-hydroxy-6-demethyl Tylophorinine], the IC50 in the experiment with HepG2 (setting [1]) stood at 4.77 ± 2.11 µM; at Aurora-B (setting [2]) it was 1.3 ± 0.58 µM; in the experiment with HCT-116 (setting [3]), 20.1 ± 1.94 µM; in the experiment on MCF-7 (setting [4]), 6.45 ± 2.06 µM; on Aurora-A (setting [5]) it was 0.6 ± 0.72 µM.
As to `COc1cc2c3c(c4cc(OC)c(OC)cc4c2cc1OC)CN1CCC[C@@H]1C3` [Compound 1, (-)-Tylophorine], the IC50 with HepG2 (Homo sapiens, HepG2, 48 h) is 40.1 ± 2.94 µM; on Aurora-B it was 18.3 ± 1.32 µM; in the experiment with HCT-116 (Homo sapiens, HCT-116, 48 h), 142 ± 3.06 µM; in the experiment on MCF-7 (Homo sapiens, MCF7, 48 h) it was 126 µM; against Aurora-A it was 21.4 ± 1.24 µM.
In the same order, the values of `COc1ccc(C2=C(c3ccc(OC)c(OC)c3)CN3CCCC3C2)cc1OC` (centres unmarked) [Compound 7, 6,7-Bis (3,4-dimethoxyphenyl)-1,2,3,5,8,8a-hexahydroindolizine] are over 200 µM, over 100 µM, over 200 µM, over 200 µM and over 100 µM.
In the same order, the values of `COc1ccc2c3c(c4cc(OC)c(OC)cc4c2c1)CN1CCC[C@H]1[C@@H]3O` [Compound 3, 3,6,7-trimethoxy-14α-hydroxy-phenanthroindolizidine] are 23.8 ± 3.02 µM, 3.6 ± 0.93 µM, 87 ± 3.08 µM, 32 ± 2.64 µM and 4.1 ± 1.08 µM.
With `COc1cc2c3c(c4cc(OC)c(OC)cc4c2cc1OC)[C@@H](O)[C@H]1CCCN1C3` [Compound 2, 2,3,6,7-tetramethoxy-14β-hydroxy-phenanthroindolizidine], the half-inhibitory concentration (IC50) with HepG2 (setting [1]) came to 35.3 ± 2.97 µM; at Aurora-B (setting [2]) it was 10.2 ± 1.21 µM; in the experiment with HCT-116 (setting [3]), 75.5 µM; in the experiment on MCF-7 (setting [4]), 50.7 ± 2.86 µM; at Aurora-A (setting [5]) it was 16.2 ± 1.43 µM.
Turning to `COC(=O)[C@]1(O)C[C@@H](O)[C@@H](O)[C@H](OC(=O)/C=C/c2ccc(O)c(O)c2)C1` [Compound 9, chlorogenic acid methyl ester], the half-inhibitory concentration (IC50) with HepG2 (setting [1]), with HCT-116 (setting [3]) and in the experiment on MCF-7 (setting [4]) was over 200 µM each time.
Consider `N.N.[Cl][Pt][Cl]` [Cisplatin, reference compound], for which the results for the IC50 in the experiment on HepG2 (setting [6]), in the experiment with HCT-116 (setting [6]) and in the experiment on MCF-7 (setting [6]) were 12.9 ± 0.91 µM, 14.4 ± 1.69 µM and 5.7 ± 0.76 µM, respectively.
As to `O=C(/C=C/c1ccc(O)c(O)c1)O[C@@H]1C[C@](O)(C(=O)O)C[C@@H](O)[C@H]1O` [Compound 8, chlorogenic acid], the values for the IC50 in the experiment on HepG2 (setting [1]), with HCT-116 (setting [3]) and with MCF-7 (setting [4]) were 170 µM, over 200 µM and 134 µM, respectively.

As usually defined, the IC50 is the concentration that inhibits the measured activity by half.
